According to ChEMBL document CHEMBL2311376, “Synthesis and antibacterial evaluation of a novel tricyclic oxaborole-fused fluoroquinolone” (2013):
In brackets after ≈: the same amount, converted by molar mass.

How the values were obtained:
Format in all cases: functional
Escherichia coli [1] = assay: Antimicrobial activity against Escherichia coli K-12 containing delta-lacU169 tolC::Tn10 gyrA S83L mutant by microbroth dilution assay
Escherichia coli [2] = assay: Antimicrobial activity against Escherichia coli K-12 containing delta-lacU169 tolC::Tn10 gyrA D87Y mutant by microbroth dilution assay
Staphylococcus aureus = assay: Antimicrobial activity against Staphylococcus aureus ATCC 29213 by microbroth dilution assay
Escherichia coli [3] = assay: Antimicrobial activity against Escherichia coli K-12 containing delta-lacU169 mutant by microbroth dilution assay
Escherichia coli [4] = assay: Antimicrobial activity against Escherichia coli K-12 containing delta-lacU169 tolC::Tn10 mutant by microbroth dilution assay

CC(C)(C)OC(=O)N1CCN(c2cc3c(cc2F)c(=O)c2c(n3C3CC3)COB2O)CC1
MIC (Escherichia coli [1]): > 256 µg/mL
MIC (Escherichia coli [2]): > 256 µg/mL
MIC (Staphylococcus aureus): > 256 µg/mL
MIC (Escherichia coli [3]): > 256 µg/mL
MIC (Escherichia coli [4]): > 256 µg/mL

O=c1c(Br)c(CO)n(C2CC2)c2cc(N3CCNCC3)c(F)cc12
MIC (Escherichia coli [1]): 256 µg/mL (≈ 646 µM)
MIC (Escherichia coli [2]): > 256 µg/mL
MIC (Staphylococcus aureus): > 256 µg/mL
MIC (Escherichia coli [3]): > 256 µg/mL
MIC (Escherichia coli [4]): 128 µg/mL (≈ 323 µM)

O=c1cc(CO)n(C2CC2)c2cc(N3CCNCC3)c(F)cc12
MIC (Escherichia coli [1]): > 256 µg/mL
MIC (Escherichia coli [2]): > 256 µg/mL
MIC (Staphylococcus aureus): > 256 µg/mL
MIC (Escherichia coli [3]): > 256 µg/mL
MIC (Escherichia coli [4]): > 256 µg/mL

O=c1c2c(n(C3CC3)c3cc(N4CCNCC4)c(F)cc13)COB2O
MIC (Escherichia coli [1]): 64 µg/mL (≈ 186 µM)
MIC (Escherichia coli [2]): 32 µg/mL (≈ 93.2 µM)
MIC (Staphylococcus aureus): 128 µg/mL (≈ 373 µM)
MIC (Escherichia coli [3]): 128 µg/mL (≈ 373 µM)
MIC (Escherichia coli [4]): 16 µg/mL (≈ 46.6 µM)
